Tests used:
[1] = test system: A549; test: Antitumor activity against A549 cell line at 0.1 umol/L by SRB method; assay type: functional; settings: Homo sapiens
[2] = test system: P388; test: Antitumor activity against P388 cell line at 10 umol/L by MTT method; assay type: functional; settings: Mus musculus
[3] = test system: A549; test: Antitumor activity against A549 cell line at 10 umol/L by SRB method; assay type: functional; settings: Homo sapiens
[4] = test system: P388; test: Antitumor activity against P388 cell line at 1 umol/L by MTT method; assay type: functional; settings: Mus musculus
[5] = test system: P388; test: Antitumor activity against P388 cell line at 0.1 umol/L by MTT method; assay type: functional; settings: Mus musculus
[6] = test system: A549; test: Antitumor activity against A549 cell line at 1 umol/L by SRB method; assay type: functional; settings: Homo sapiens
[7] = test system: P388; test: Antitumor activity against P388 cell line at 100 umol/L by MTT method; assay type: functional; settings: Mus musculus
[8] = test system: SGC-7901; test: Antitumor activity against SGC7901 cell line at 0.01 umol/L by SRB method; assay type: functional; settings: Homo sapiens
[9] = test system: SGC-7901; test: Antitumor activity against SGC7901 cell line at 100 umol/L by SRB method; assay type: functional; settings: Homo sapiens
[10] = test system: SGC-7901; test: Antitumor activity against SGC7901 cell line at 0.1 umol/L by SRB method; assay type: functional; settings: Homo sapiens
[11] = test system: P388; test: Antitumor activity against P388 cell line at 0.01 umol/L by MTT method; assay type: functional; settings: Mus musculus
[12] = test system: SGC-7901; test: Antitumor activity against SGC7901 cell line at 1 umol/L by SRB method; assay type: functional; settings: Homo sapiens
[13] = test system: SGC-7901; test: Antitumor activity against SGC7901 cell line at 10 umol/L by SRB method; assay type: functional; settings: Homo sapiens
[14] = test system: SGC-7901; test: Antitumor activity against SGC7901 cell line at 50 nmol/L by SRB method; assay type: functional; settings: Homo sapiens
[15] = test system: SGC-7901; test: Antitumor activity against SGC7901 cell line at 6.25 nmol/L by SRB method; assay type: functional; settings: Homo sapiens
[16] = test system: SGC-7901; test: Antitumor activity against SGC7901 cell line at 25 nmol/L by SRB method; assay type: functional; settings: Homo sapiens
[17] = test system: SGC-7901; test: Antitumor activity against SGC7901 cell line at 12.5 nmol/L by SRB method; assay type: functional; settings: Homo sapiens
[18] = test system: SGC-7901; test: Antitumor activity against SGC7901 cell line by SRB method; assay type: functional, cell-based; settings: Homo sapiens

SMILES | inhibition at 0.1 µM [1] | inhibition at 10 µM [2] | inhibition at 10 µM [3] | inhibition at 1 µM [4] | inhibition at 0.1 µM [5] | inhibition at 1 µM [6] | inhibition at 100 µM [7] | inhibition at 0.01 µM [8] | inhibition at 100 µM [9] | inhibition at 0.1 µM [10] | inhibition at 0.01 µM [11] | inhibition at 1 µM [12] | inhibition at 10 µM [13] | inhibition at 0.05 µM [14] | inhibition at 0.00625 µM [15] | inhibition at 0.025 µM [16] | inhibition at 0.0125 µM [17] | IC50 [18]
C/C(=N/N=C(\S)N1CCN(c2ccccn2)CC1)c1ccccc1 | 0% | 4.6% | 0.8% | 0% | 0% | 0% |  |  |  |  |  |  |  |  |  |  |  | 
C/C(=N/N=C(\S)N1CCN(C2CCCCCC2)CC1)c1ccccn1 | 0% | 96.5% | 40% | 41.6% | 39.8% | 17.8% |  |  |  |  |  |  |  |  |  |  |  | 
C/C(=N/N=C(\S)Nc1ccc([N+](=O)[O-])cc1)c1cccs1 |  | 0% |  | 2.1% | 3.6% |  | 8.6% | 9.1% | 51.7% | 14.5% | 10.3% | 8.3% | 35.7% |  |  |  |  | 
C/C(=N/N=C(\S)Nc1ccccc1)c1cccs1 |  | 1.2% |  | 1.6% | 6.2% |  | 48% | 0% | 39.2% | 0% | 8.5% | 0% | 0% |  |  |  |  | 
C/C(=N/N=C(\S)N1CCN(c2ccccn2)CC1)c1ccco1 | 0% | 77.3% | 72.3% | 50% | 37.9% | 0% |  |  |  |  |  |  |  |  |  |  |  | 
COc1ccc(/C(C)=N\N=C(/S)N2CCN(c3ccccn3)CC2)cc1 | 3.3% | 7.3% | 0.8% | 3.7% | 2.8% | 0% |  |  |  |  |  |  |  |  |  |  |  | 
C/C(=N/N=C(\S)Nc1cccc(Cl)c1)c1cccs1 |  | 6.5% |  | 3.7% | 8.3% |  | 51% | 0% | 86.8% | 0% | 0% | 0% | 39.7% |  |  |  |  | 
C/C(=N/NC(=S)N1CCN(c2ccccn2)CC1)c1ccccn1 | 24.6% | 100% | 100% | 12.8% | 13.8% | 19.7% |  |  |  |  |  |  |  |  |  |  |  | 
C/C(=N/N=C(\S)N1CCN(c2ccccn2)CC1)c1cccs1 |  | 0% |  | 15% | 0% |  | 100% | 12.8% | 96.4% | 1.6% | 0% | 7.2% | 94.9% |  |  |  |  | 
C/C(=N/N=C(\S)N1CCN(c2ccccn2)CC1)c1ccc(Cl)cc1 | 0.8% | 0% | 0% | 0% | 0% | 0% |  |  |  |  |  |  |  |  |  |  |  | 
C/C(=N/N=C(\S)N1CCN(c2ccccn2)CC1)c1ccc(O)cc1 | 0% | 53% | 0% | 25.8% | 28.8% | 0% |  |  |  |  |  |  |  |  |  |  |  | 
C/C(=N/N=C(\S)N1CCN(c2ccccn2)CC1)c1ncccn1 | 12.6% | 96.5% | 79.3% | 89.4% | 28.3% | 18.5% |  |  |  | 81.7% |  | 90% | 90% | 60.1% | 18.4% | 48.4% | 31.7% | 32 nM
CCn1cc(C(=O)O)c(=O)c2cc(F)c(N3CCN(/C(S)=N/N=C\c4ccccc4)CC3)cc21 | 0% | 68.8% | 4.1% | 4.6% | 0% | 0.8% |  |  |  |  |  |  |  |  |  |  |  | 
C/C(=N/N=C(\S)Nc1ccc(C)cc1)c1cccs1 |  | 9.2% |  | 5.7% | 10.8% |  | 8.4% | 8.8% | 67.8% | 9.6% | 0% | 15% | 33.9% |  |  |  |  | 
C/C(=N/N=C(\S)Nc1ccccc1C)c1cccs1 |  | 1.3% |  | 0% | 5.9% |  | 91.9% | 7.1% | 73.5% | 0% | 0% | 5.5% | 41.6% |  |  |  |  | 
CCn1cc(C(=O)O)c(=O)c2cc(F)c(N3CCN(/C(S)=N/N=C(/C)c4ccccc4)CC3)cc21 | 0% | 100% | 63.9% | 24.8% | 0% | 0.8% |  |  |  |  |  |  |  |  |  |  |  | 
CCn1cc(C(=O)O)c(=O)c2cc(F)c(N3CCN(/C(S)=N/N=C(/C)c4ccccn4)CC3)cc21 | 0% | 26.6% | 7.4% | 4.6% | 0% | 16.4% |  |  |  |  |  |  |  |  |  |  |  | 
C/C(=N/N=C(\S)N1CCN(c2ccccn2)CC1)c1ccc(N)cc1 | 0% | 30.3% | 46.8% | 4.6% | 12.1% | 0% |  |  |  |  |  |  |  |  |  |  |  | 
COc1ccc(N/C(S)=N/N=C(/C)c2cccs2)cc1 |  | 5.2% |  | 6.9% | 3.6% |  | 25.9% | 0% | 65.1% | 0% | 0% | 0% | 29.2% |  |  |  |  | 
C/C(=N/N=C(\S)Nc1cc(Cl)cc(Cl)c1)c1cccs1 |  | 20.9% |  | 7% | 17.6% |  | 90.1% | 0% | 72.9% | 0% | 0% | 0% | 27.9% |  |  |  |  | 
C/C(=N/N=C(\S)N1CCN(c2ccccn2)CC1)c1ccc(C)cc1 | 0% | 25.8% | 0% | 21.2% | 28.8% | 0% |  |  |  |  |  |  |  |  |  |  |  | 
C/C(=N/N=C(\S)N1CCN(c2ccccn2)CC1)c1ccc([N+](=O)[O-])cc1 | 0% | 6.4% | 16.4% | 4.6% | 4.6% | 0% |  |  |  |  |  |  |  |  |  |  |  | 
C/C(=N/N=C(\S)Nc1cccc2ccccc12)c1cccs1 |  | 4.3% |  | 7.2% | 0.9% |  | 30.3% | 20% | 55.9% | 16.5% | 0% | 13.5% | 24.3% |  |  |  |  | 
S=C(N/N=C\c1ccccc1)N1CCN(c2ccccn2)CC1 | 0.8% | 7.3% | 0% | 4.6% | 3.7% | 16.4% |  |  |  |  |  |  |  |  |  |  |  | 
C/C(=N/N=C(\S)Nc1ccc(Cl)cc1)c1cccs1 |  | 9.9% |  | 0% | 0% |  | 21.6% | 0% | 56.7% | 0% | 0% | 0% | 12.7% |  |  |  |  | 
C/C(=N/N=C(\S)N1CCN(c2ccccn2)CC1)c1nccs1 | 15.6% | 94.5% | 13.6% | 74.3% | 73.5% | 21.5% |  |  |  | 14.3% |  | 60.8% | 92.5% |  |  |  |  | 
